# No end group written: not given here.
# How the values were obtained:
# [1] = molecular target: T1, tyrosinase extracted from B16 melanoma cells (Mus musculus, UniProt P11344); assay: Inhibition of tyrosinase activity, L-DOPA oxidation (Example 5); format: biochemical; conditions: tyrosinase and L-DOPA, 37° C., 1 hour, absorbance 475 nm; vs positive control treated with tyrosinase and L-DOPA; FIG. 7
# T1 construct: tyrosinase was extracted from B16 melanoma cells and used as an enzyme source; endogenous in cells; host or cells: B16 melanoma cells stimulated with alpha-MSH; cell extract
# T1 sequence (P11344 19-533): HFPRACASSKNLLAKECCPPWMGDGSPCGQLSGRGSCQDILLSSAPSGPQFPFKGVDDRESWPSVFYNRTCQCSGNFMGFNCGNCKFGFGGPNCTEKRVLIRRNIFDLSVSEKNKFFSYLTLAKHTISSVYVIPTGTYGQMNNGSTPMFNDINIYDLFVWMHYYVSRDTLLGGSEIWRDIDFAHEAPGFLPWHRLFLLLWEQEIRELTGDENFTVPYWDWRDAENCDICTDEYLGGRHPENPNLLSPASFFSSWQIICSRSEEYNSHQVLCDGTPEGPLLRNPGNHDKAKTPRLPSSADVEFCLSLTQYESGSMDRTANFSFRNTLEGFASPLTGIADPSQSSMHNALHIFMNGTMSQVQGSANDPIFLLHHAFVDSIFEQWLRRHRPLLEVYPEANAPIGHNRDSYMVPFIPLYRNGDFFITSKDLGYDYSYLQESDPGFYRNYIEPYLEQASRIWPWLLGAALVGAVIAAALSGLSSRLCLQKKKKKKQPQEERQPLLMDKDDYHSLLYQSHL
# Procedure: B16 melanoma cells were aliquoted in a 100 mm culture dish at 2×10^5 cells/dish. After 24 hours, the medium from the 100 mm culture dish was removed and treated with DMEM medium containing 10% FBS and a stimulant (α-MSH). After 48 hours, tyrosinase was extracted from B16 melanoma cells and used as an enzyme source. Using the principle that tyrosinase oxidizes L-DOPA to DOPA chrome and DOPA chrome has absorbance at 475 nm, tyrosinase and L-DOPA were incubated at 37° C. for 1 hour and absorbance was measured at 475 nm at 2 minute intervals, so that the production amount of DOPA chrome according to time was measured. The amount of changing 1 nmole of L-DOPA per minute to DOPA chrome was defined as the amount of tyrosinase activity. The tyrosinase inhibitory effect of Compound 2 was evaluated by comparing the group treated with tyrosinase and L-DOPA in combination as a positive control and the group treated with tyrosinase, L-DOPA and Compound 2 in combination.
# B16 melanoma cells [2] = assay: Cytotoxicity of hydroquinone and Compound 2 by MTT assay (Example 4); format: cell-based; conditions: treated alone, concentration of 10 μM or less; α-MSH 100 nM 76 hours; absorbance 590 nm; FIG. 6
# Procedure: Using B16 melanoma cells, cytotoxicity was measured by MTT assay when hydroquinone and Compound 2 were treated alone or in combination.
# 200 μL of B16 melanoma cells were aliquoted in a 96-well plate to 2.7×10^3 cells/well, and then cultured at 37° C., 5% CO2 incubator for 24 hours. B16 melanoma cells were treated with hydroquinone and/or Compound 2 for 2 hours under the same conditions as in Example 3.
# Thereafter, α-MSH was treated at a concentration of 100 nM for 76 hours, and absorbance was measured at 590 nm by MTT assay, and the results are shown in FIG. 6.
# B16 melanoma cells [3] = assay: Melanogenesis inhibition upon single or combination treatment with hydroquinone (Example 3); format: cell-based
# Procedure: Using B16 melanoma cells, melanogenesis inhibition and melanosome degradation effect were confirmed upon single or combination treatment with hydroquinone and the compound of the present invention.
# B16 melanoma cells were treated alone or in combination with hydroquinone and/or a compound of the present invention for 2 hours under the following conditions.
# (i) Compound 2: 1, 3, 10 μM single administration
# (ii) Hydroquinone: 1, 3, 10 μM single administration
# (iii) Compound 2 (1, 3, 10 μM)+Hydroquinone (5 μM)
# Thereafter, α-MSH was treated at a concentration of 100 nM for 76 hours.
# After 72 hours, absorbance was measured at 405 nm to quantify the amount of melanin released into the medium, and the inhibition rate was calculated and shown in FIG. 5.
molecule,measurement,setting,value
OC[C@H]1O[C@@H](Oc2ccc(O)cc2)[C@H](O)[C@@H](O)[C@@H]1O [Arbutin],inhibition of tyrosinase activity,[1],inhibited the activity of tyrosinase
"Oc1ccc(O)cc1 [hydroquinone, Benzene-1,4-diol]",cell viability / cytotoxicity (MTT assay),B16 melanoma cells [2],no cytotoxicity
same,IC50,"B16 melanoma cells [3]; Mus musculus, B16, single treatment, based on the amount of melanogenesis in the positive control group (α-MSH 100 nM)",7.7 µM
same,melanogenesis inhibition and melanosome degradation effect,"B16 melanoma cells [3]; treated alone, 1, 3, 10 μM, α-MSH 100 nM, FIG. 5",dose-dependently increased
"α-melanocyte stimulating hormone (SYSMEHFRWGKPV; ends and bridges not checked; UniProt P01189 138-150, looked up) [α-MSH, agonist that stimulates melanogenesis; used as the stimulant / positive control]",increase of the amount of melanin,B16 melanoma cells [3]; positive control treated with α-MSH 100 nM,16.5 times

# Source: patent US20230018245A1, “Skin Whitening Composition Containing Dihydro-5-Methylfuran-2(3h)-One Derivative” (Epi Biotech Co., Ltd., priority 2019, published 2023)
